Test results taken from US10668080B2, “Phosphaplatin compounds as therapeutic agents for treatment of bone or blood cancers” (Phosplatin Therapeutics LLC, priority 2017, dated 2020).

Experiments:
de novo Vk*MYC mice = assay: Multiple myeloma mouse model, de novo Vk*MYC mice, M-spike levels; format: in vivo
Experimental: (§1) The trans-pyrodach-2 compound is tested on the multiple myeloma mouse model, in particular Vk*MYC mice, which has been reported to be a faithful preclinical model that predicts the clinical activity of drugs in untreated and relapsed MM (Chesi, M., et al., Cancer Cell, 2008, 23, 167-180; Chesi, M., et al., Blood, 2012, 120(2): 376-385). Additionally, the trans-pyrodach-2 compound was tested in mice engrafted with the more aggressive bortezomib resistant Vk12598, and in the multidrug resistant Vk12653 lines, both of which were generated from Vk*MYC mice.
De novo Vk*MYC mice were aged to one year or longer, and M-spike levels were monitored. After the concentrations of the predominant M-spike reached levels of between about 10 and 70 g/L (estimated by densitometry, comparing M-spike to albumin), mice were candidates for starting drug treatment. Mice brought onto the study were dosed either twice weekly (n=2) or thrice (n=1) weekly at a concentration of 100 or 67 mg/kg (R,R)-pyrodach-2, respectively, administered via IP injection after preparation in a phosphate buffer solution. M-spike levels were measured weekly, and post-treatment measurements were compared and normalized to the pre-treatment baseline measurement. Dosing was halted after two weeks of treatment.

Vk12598-engrafted mice = assay: Mice engrafted with bortezomib resistant Vk12598 line, survival; format: in vivo; settings: 62.5 mg/kg IP twice a week for two weeks; for survival: versus vehicle control (all died by 21 days)
Experimental: as §1
(§2) Additionally, mice were engrafted with the Vk12598 transplantable line and received vehicle (n=11) or (R,R)-pyrodach-2 at a concentration of 62.5 mg/kg (n=12). Mice engrafted with the Vk12653 transplantable line were likewise treated with vehicle (n=10) or (R,R)-pyrodach-2 at 62.5 mg/kg (n=10). Both Vk12598 and Vk12653 engrafted mice were treated twice a week for two weeks via IP injection and monitored via survival and M-spike levels, respectively.

Vk12653-engrafted mice = assay: Mice engrafted with multidrug resistant Vk12653 line, M-spike levels; format: in vivo; settings: 62.5 mg/kg IP twice a week for two weeks
Experimental: as §1, §2

[1] = LA-ICP-MS imaging, distribution and quantification of platinum in mouse whole-body sections; format: in vivo, CD-1 mice; settings: (R,R)-pyrodach-2 or derived Pt; treated mice
Experimental: Five CD-1 mice were dosed with (R,R)-pyrodach-2, intravenous (IV), at a concentration of 90 mg/kg, and one additional mouse was dosed with vehicle (phosphate buffer). After dosing, the (R,R)-pyrodach-2 treated mice were euthanized at different time points (45 min, 3 hr, 12 hr, 24 hr, and 72 hr), and the control mouse was euthanized at 45 minutes post dosing. Subsequently, carcasses were snap frozen at −70° C. Slides of full body sagittal plane cross sections were prepared for the control, 45 min, and 24 hr mice. Laser Ablation Inductively Coupled Plasma Mass Spectrometry (LA-ICP-MS) was then used to scan the slides for the concentration of Pt (an atomic component of (R,R)-pyrodach-2) across the entire full body cross sections. Additional slides were prepared from adjacent positions and hematoxylin & eosin (H&E) stained to map the Pt signal to different organs and tissues.
To detect the Platinum element (Pt) by LA-ICP-MS imaging into mouse whole-body sections at 150 μm spatial resolution covering the entire sections in the different section planes for the animals: Treated 45 min, Treated 24 h and Control 45 min (3 sectioning levels per animal).
The mice were sectioned at 20 μm thickness in 3 different section planes with a cryostat and mounted onto ITO glass slides. […]

[2] = tested on: cancerous cell lines, including leukemia and multiple myeloma cell lines resistant to lenalidomide, dexamethasone, and/or bortezomib; assay: In vitro experiments on several cancerous cell lines; format: cell-based; settings: several different cancerous cell lines
From the text: Thus, these bone tissues are exposed to (R,R)-pyrodach-2 (or derived Pt) at concentrations much higher than what is normally needed to induce cancer cell death.

[3] = tested on: metastatic castration resistant prostate cancer (mCRPC); assay: Phase I study, decline in serum alkaline phosphatase in patient with mCRPC; format: in vivo, human; settings: 250 mg/m^2 on days 1, 8, 15 of 28 day cycle
Experimental: In an ongoing phase I solid tumor dose escalation study, R,R-pyrodach-2 (PT-112) was given to a patient with mCRPC at a dose of 250 mg/m^2, dosed on days 1, 8, and 15 of a 28 day cycle. The patient enrolled in the study with elevated serum alkaline phosphatase levels, a sign of metastatic bone disease.
Upon treatment start, the patient experienced a rapid decline in serum alkaline phosphatase levels, a sign of anticancer drug activity at cancerous bone lesions. These measurements were fractionated to validate the proportion of the result emanating from bone (vs. liver). The bone proportion represented the vast majority of the result, validating the relationship to the metastatic bone disease in this patient.

[4] = Phase I solid tumor dose escalation study, safety; format: in vivo, human; settings: phase I trial; MTD yet to be determined
Experimental: In an ongoing phase I solid tumor dose escalation study, R,R-pyrodach-2 (PT-112) was given to a patient with mBCC at a dose of 150 mg/m^2, dosed on days 1, 8, and 15 of a 28 day cycle.

SMILES: O=P1(O)OP(=O)(O)[O][Pt]2([NH][C@@H]3CCCC[C@H]3[NH]2)[O]1 (stereo partly drawn) [(R,R)-pyrodach-2, trans-(R,R)-1,2-cyclohexanediamine-(dihydrogenpyrophosphato) platinum(II)]
- results compared with approved MM SoC agents (de novo Vk*MYC mice; M-spike response in Vk*MYC model): comparable or superior
- tolerability (de novo Vk*MYC mice; given twice or thrice weekly, Vk*MYC mouse model): well tolerated
- complete responses (Vk12598-engrafted mice): durable, complete response lasting over six months
- survival (Vk12598-engrafted mice): significant increases in survival
- survival (Vk12598-engrafted mice; listed as (R,R)-Pyrodach-2): increased survival
- M-spike levels in comparison to vehicle control (Vk12653-engrafted mice): statistically significant reduction
- M-spike levels in comparison to vehicle control (Vk12653-engrafted mice; listed as (R,R)-Pyrodach-2): repression of M-spike level elevations
- distribution to bone compartments [1]: clearly concentrates in bone compartments at very high concentrations over a long period of time
- concentrations sufficient to kill cancer cells [2]: low micromolar
- serum alkaline phosphatase levels [3]: rapid decline
- highest dose deemed to be safe [4]: 360 mg/m^2
